In this experiment the target is T1, human orexin-2 (hOX2) receptors (Homo sapiens, UniProt O43614).
T1 construct: expressed in transfected cells
T1 sequence (O43614 1-444): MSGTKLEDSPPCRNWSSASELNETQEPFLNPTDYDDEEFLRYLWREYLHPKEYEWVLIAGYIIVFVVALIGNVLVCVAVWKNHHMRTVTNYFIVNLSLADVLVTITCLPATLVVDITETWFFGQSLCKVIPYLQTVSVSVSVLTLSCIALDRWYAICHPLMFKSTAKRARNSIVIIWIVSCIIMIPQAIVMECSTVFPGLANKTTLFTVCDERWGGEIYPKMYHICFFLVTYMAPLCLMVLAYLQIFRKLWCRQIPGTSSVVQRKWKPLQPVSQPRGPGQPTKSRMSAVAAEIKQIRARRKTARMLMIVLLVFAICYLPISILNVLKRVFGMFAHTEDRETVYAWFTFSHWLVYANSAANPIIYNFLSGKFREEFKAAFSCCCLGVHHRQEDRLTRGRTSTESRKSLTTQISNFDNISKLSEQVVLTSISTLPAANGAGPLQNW
Kind of experiment: Intracellular Ca2+ mobilization assay (FLIPR), orexin-A as agonist. The class given is cell-based. The note with it: CHO(dHFr-) cells stably expressing hOX2; antagonist applied 25 min before EC80 of orexin-A; Kb=IC50/(1+[A]/EC50); read-out: Kb (μM) OX2R (human). As to the method:
Intracellular Ca^2+ Mobilization Assay
The Chinese Hamster Ovary (dHFr-) mutant cell line stably expressing human orexin-1 (hOX1) or human orexin-2 (hOX2) receptors were maintained in Dulbecco's Modified Eagle Medium (1X) with GlutaMax™ 1, 4500 mg/L D-Glucose and Sodium Pyruvate (Catalog No. 31966-021, Invitrogen, Carlsbad, Calif.), 5% dialyzed fetal calf serum (Catalog No. 26400-044), 100 μg/ml penicillin and 100 μg/ml streptomycin. The cells were seeded at 5×10^4 cells/well in the poly-D-lysine treated, 96-well, black/clear-bottomed plates (Catalog No. BD356640, BD Biosciences, Palo Alto, Calif.). 24 h later, the cells were loaded for 1 hr at 37° C. with 4 μM Flou-4 acetoxymethyl ester (Catalog No. F-14202, Molecular Probes, Eugene, Oreg.) in FLIPR buffer (1×HBSS, 20 mM HEPES, 2.5 mM Probenecid). Hanks' Balanced Salt Solution (HBSS) (10X) (catalog No. 14065-049) and HEPES (1M) (catalog No. 15630-056) were purchased from Invitrogen, Carlsbad, Calif. Probenecid (250 mM) (catalog No. P8761) was from Sigma, Buchs, Switzerland. The cells were washed five times with FLIPR buffer to remove excess dye and intracellular calcium mobilization, [Ca^2+] were measured using a Fluorometric Imaging Plate Reader (FLIPR-96, Molecular Devices, Menlo Park, Calif.) as described previously (Malherbe et al., Mol. Pharmacol., 64, 823-832, 2003). Orexin A (catalog No.1455, Toris Cookson Ltd, Bristol, UK) was used as agonist. Orexin A ([…] stock solution in DMSO) was diluted in FLIPR buffer +0.1% BSA. The EC50 and EC80 values of orexin-A were measured daily from standard agonist concentration-response curves in CHO(dHFr-)-OX1R and —OX2R cell lines. All compounds were dissolved in 100% DMSO. Inhibition curves were determined by addition of 11 concentrations (0.0001-10 μM) of inhibitory compounds and using EC80 value of orexin-A as agonist (a concentration which gave 80% of max agonist response, determined daily). The antagonists were applied 25 min (incubation at 37° C.) before the application of the agonist. Responses were measured as peak increase in fluorescence minus basal, normalized to the maximal stimulatory effect induced by EC80 value of orexin-A or orexin-B. Inhibition curves were fitted according to the Hill equation: y=100/(1+(x/1C50)^nH), where nH=slope factor using Excel-fit 4 software (Microsoft). Kb values were calculated according to the following equation Kb=IC50/(1+[A]/EC50) where A is the concentration of agonist added which is very close to agonist EC80 value, and IC50 and EC50 values were derived from the antagonist inhibition and orexin-A or B agonist curves, respectively.
For orientation: A change in cytosolic calcium serves as a functional read-out for many receptors and channels.

With `O=C(CN(c1ccc(Cl)cc1)S(=O)(=O)c1cccc(F)c1)N1CCCC1c1ccc(F)cc1` (stereo not shown) [Example 15, N-(4-Chloro-phenyl)-3-fluoro-N-{2-[2-(4-fluoro-phenyl)-pyrrolidin-1-yl]-2-oxo-ethyl}-benzenesulfonamide], the Kb (as a rule, the affinity of an antagonist, worked out from how it opposes an agonist) amounted to 0.0018 µM.
As for `O=C(CN(c1ccc(Cl)cc1)S(=O)(=O)c1ccccc1F)N1CCCC1c1ccc(F)cc1` (stereo not shown) [Example 16, N-(4-Chloro-phenyl)-2-fluoro-N-{2-[2-(4-fluoro-phenyl)-pyrrolidin-1-yl]-2-oxo-ethyl}-benzenesulfonamide], the Kb was found to be 0.0009 µM.
The same measure for `COc1ccc(S(=O)(=O)N(CC(=O)N2CCCC2c2ccccc2)c2ccc(F)cc2)cc1` (stereo not shown) [Example 38, N-(4-Fluoro-phenyl)-4-methoxy-N-[2-oxo-2-(2-phenyl-pyrrolidin-1-yl)-ethyl]-benzenesulfonamide]: 0.0096 µM.
Consider `O=C(CN(c1ccc(Cl)cc1)S(=O)(=O)c1ccc(Cl)cc1)N1CCCC1c1ccccc1` (stereo not shown) [Example 8, 4-Chloro-N-(4-chloro-phenyl)-N-[2-oxo-2-(2-phenyl-pyrrolidin-1-yl)-ethyl]-benzenesulfonamide], for which the Kb worked out at 0.0022 µM.
`COc1ccc(S(=O)(=O)N(CC(=O)N2CCCC2c2ccc(F)cc2)c2cccc(F)c2)cc1` (stereo not shown) [Example 31, N-(3-Fluoro-phenyl)-N-{2-[2-(4-fluoro-phenyl)-pyrrolidin-1-yl]-2-oxo-ethyl}-4-methoxy-benzenesulfonamide]: the Kb was 0.0064 µM.
With `COc1ccc(S(=O)(=O)N(CC(=O)N2CCCC2c2ccccc2)c2ccccc2OC)cc1` (stereo not shown) [Example 43, 4-Methoxy-N-(2-methoxy-phenyl)-N-[2-oxo-2-(2-phenyl-pyrrolidin-1-yl)-ethyl]-benzenesulfonamide], the Kb turned out to be 0.0032 µM.
Turning to `O=C(CN(c1ccc(Cl)cc1)S(=O)(=O)c1ccccc1Cl)N1CCCC1c1ccccc1` (stereo not shown) [Example 12, 2-Chloro-N-(4-chloro-phenyl)-N-[2-oxo-2-(2-phenyl-pyrrolidin-1-yl)-ethyl]-benzenesulfonamide], the Kb was 0.0012 µM.
On to `O=C(CN(c1ccc(Cl)cc1)S(=O)(=O)c1ccc(F)cc1)N1CCCC1c1ccc(F)cc1` (stereo not shown) [Example 40, N-(4-Chloro-phenyl)-4-fluoro-N-{2-[2-(4-fluoro-phenyl)-pyrrolidin-1-yl]-2-oxo-ethyl}-benzenesulfonamide], for which the Kb came out at 0.0005 µM.
For `COc1cccc(S(=O)(=O)N(CC(=O)N2CCCC2c2ccccc2)c2ccc(Cl)cc2)c1` (stereo not shown) [Example 1, N-(4-Chloro-phenyl)-3-methoxy-N-[2-oxo-2-(2-phenyl-pyrrolidin-1-yl)-ethyl]-benzenesulfonamide] the value was 0.0017 µM; for `Cc1cccc(S(=O)(=O)N(CC(=O)N2CCCC2c2ccc(F)cc2)c2ccc(Cl)cc2)c1` (stereo not shown) [Example 24, N-(4-Chloro-phenyl)-N-{2-[2-(4-fluoro-phenyl)-pyrrolidin-1-yl]-2-oxo-ethyl}-3-methyl-benzenesulfonamide], 0.0005 µM; for `Cc1ccccc1S(=O)(=O)N(CC(=O)N1CCCC1c1ccc(F)cc1)c1ccc(Cl)cc1` (stereo not shown) [Example 20, N-(4-Chloro-phenyl)-N-{2-[2-(4-fluoro-phenyl)-pyrrolidin-1-yl]-2-oxo-ethyl}-2-methyl-benzenesulfonamide], 0.0006 µM.
For the compound `O=C(CN(c1ccc(Cl)cc1)S(=O)(=O)c1ccccc1Cl)N1CCCC1c1ccc(F)cc1` (stereo not shown) [Example 7, 2-Chloro-N-(4-chloro-phenyl)-N-{2-[2-(4-fluoro-phenyl)-pyrrolidin-1-yl]-2-oxo-ethyl}-benzenesulfonamide], the Kb is 0.0007 µM.
Take `COc1ccc(S(=O)(=O)N(CC(=O)N2CCCC2c2ccc(F)cc2)c2ccc(F)cc2)cc1` (stereo not shown) [Example 45, N-(4-Fluoro-phenyl)-N-{2-[2-(4-fluoro-phenyl)-pyrrolidin-1-yl]-2-oxo-ethyl}-4-methoxy-benzenesulfonamide]: the Kb was determined as 0.0079 µM.
Turning to `O=C(CN(c1ccc(Cl)cc1)S(=O)(=O)c1cccc(Cl)c1)N1CCCC1c1ccc(F)cc1` (stereo not shown) [Example 18, 3-Chloro-N-(4-chloro-phenyl)-N-{2-[2-(4-fluoro-phenyl)-pyrrolidin-1-yl]-2-oxo-ethyl}-benzenesulfonamide], the Kb was determined as 0.0014 µM.
`COc1cccc(S(=O)(=O)N(CC(=O)N2CCCC2c2ccc(F)cc2)c2ccc(Cl)cc2)c1` (stereo not shown) [Example 21, N-(4-Chloro-phenyl)-N-{2-[2-(4-fluoro-phenyl)-pyrrolidin-1-yl]-2-oxo-ethyl}-3-methoxy-benzenesulfonamide]: the Kb worked out at 0.0006 µM.
The same measure for `O=C(CN(c1ccc(Cl)cc1)S(=O)(=O)c1ccc(Cl)cc1)N1CCCC1c1ccc(F)cc1` (stereo not shown) [Example 19, 4-Chloro-N-(4-chloro-phenyl)-N-{2-[2-(4-fluoro-phenyl)-pyrrolidin-1-yl]-2-oxo-ethyl}-benzenesulfonamide]: 0.002 µM; for `Cc1ccc(S(=O)(=O)N(CC(=O)N2CCCC2c2ccc(F)cc2)c2ccc(Cl)cc2)cc1` (stereo not shown) [Example 23, N-(4-Chloro-phenyl)-N-{2-[2-(4-fluoro-phenyl)-pyrrolidin-1-yl]-2-oxo-ethyl}-4-methyl-benzenesulfonamide]: 0.0013 µM; for `COc1ccc(N(CC(=O)N2CCCC2c2ccccc2)S(=O)(=O)c2ccc(OC)cc2)cc1` (stereo not shown) [Example 27, 4-Methoxy-N-(4-methoxy-phenyl)-N-[2-oxo-2-(2-phenyl-pyrrolidin-1-yl)-ethyl]-benzenesulfonamide]: 0.003 µM.
The same measure for `COc1ccc(S(=O)(=O)N(CC(=O)N2CCCC2c2ccccc2)c2ccc(Cl)cc2)cc1` (stereo not shown) [Example 2, N-(4-Chloro-phenyl)-4-methoxy-N-[2-oxo-2-(2-phenyl-pyrrolidin-1-yl)-ethyl]-benzenesulfonamide]: 0.0049 µM; for `COc1ccc(S(=O)(=O)N(CC(=O)N2CCCC2c2ccccc2)c2cccc(F)c2)cc1` (stereo not shown) [Example 36, N-(3-Fluoro-phenyl)-4-methoxy-N-[2-oxo-2-(2-phenyl-pyrrolidin-1-yl)-ethyl]-benzenesulfonamide]: 0.0077 µM.
As to `Cc1ccccc1S(=O)(=O)N(CC(=O)N1CCCC1c1ccccc1)c1ccc(Cl)cc1` (stereo not shown) [Example 3, N-(4-Chloro-phenyl)-2-methyl-N-[2-oxo-2-(2-phenyl-pyrrolidin-1-yl)-ethyl]-benzenesulfonamide], the Kb stood at 0.0005 µM.
The same measure for `COc1ccccc1S(=O)(=O)N(CC(=O)N1CCCC1c1ccc(F)cc1)c1ccc(Cl)cc1` (stereo not shown) [Example 52, N-(4-Chloro-phenyl)-N-{2-[2-(4-fluoro-phenyl)-pyrrolidin-1-yl]-2-oxo-ethyl}-2-methoxy-benzenesulfonamide]: 0.0003 µM.
For `COc1ccc(S(=O)(=O)N(CC(=O)N2CCCC2c2ccccc2)c2cccc(C(F)(F)F)c2)cc1` (stereo not shown) [Example 47, 4-Methoxy-N-[2-oxo-2-(2-phenyl-pyrrolidin-1-yl)-ethyl]-N-(3-trifluoromethyl-phenyl)-benzenesulfonamide], the Kb worked out at 0.0077 µM.
For `O=C(CN(c1ccc(Cl)cc1)S(=O)(=O)c1ccccc1F)N1CCCC1c1ccccc1` (stereo not shown) [Example 13, N-(4-Chloro-phenyl)-2-fluoro-N-[2-oxo-2-(2-phenyl-pyrrolidin-1-yl)-ethyl]-benzenesulfonamide], the Kb was found to be 0.0025 µM.
For `COc1ccc(S(=O)(=O)N(CC(=O)N2CCCC2c2ccc(F)cc2)c2ccc(Cl)cc2)cc1` (stereo not shown) [Example 22, N-(4-Chloro-phenyl)-N-{2-[2-(4-fluoro-phenyl)-pyrrolidin-1-yl]-2-oxo-ethyl}-4-methoxy-benzenesulfonamide], the Kb is 0.0017 µM.

The record behind these values is patent US7932269B2, “Sulfonamides as orexin antagonists” (Hoffmann-La Roche Inc., priority 2008, dated 2011).
